Like-named read-outs stand apart in the source and are kept apart here.
What was measured:
[1] = test system: Bacteria and Yeasts/moulds; assay: Preservative effectiveness test (European Pharmacopoeia 5.1.3), overall result; assay type: cell-based; conditions: for preservative efficacy: after 3 and 4.5 months storage; for Preservative effectiveness test Results: after manufacturing
Procedure: (§1) Solutions were prepared at room temperature, by dissolution of the various ingredients in water for injection, with stirring over <30 minutes to ensure complete dissolution, Solutions were filtered through 0.2 micron filter and filled into glass vials, to which a rubber stopper was applied and crimped in place to ensure complete closure.
The solutions were then stored for up to 3 months at 25° C., and up to 4.5 months at 5° C. and the preservative effectiveness test repeated. as described in Example 5.

Staphylococcus aureus = assay: Preservative effectiveness test, plate-count method; assay type: cell-based; conditions: after 3 and 4.5 months storage
[2] = Chemical stability of different formulations (SEQ ID NO.: 2 content); assay type: physicochemical; conditions: Table 6 formulations
Procedure: as §1
Table 6 details the chemical stability of the formulations described in Example 4.

[3] = test system: urine PD markers (calcium, phosphorus, c-AMP, creatinine); assay: Clinical study: pharmacodynamic markers in urine; assay type: in vivo, human
Procedure: Urine PD Samples (Calcium Phosphorus Cyclic AMP [c-AMP], and Creatinine) were Obtained at the Following Time Points:
Day −1/Day 1: −24 to −18 hours, −18 to −12 hours, and −12 hours to 0 hours.
Days 1 and 7: 0 to 6 hours, 6 to 12 hours, and 12 to 24 hours.
The following parameters in urine were presented for each of the PD markers using SAS® Version 8.2: Volume (Vol.), concentration (Conc.), amount (Ae), cumulative amount (Cum. Ae), and excretion rates.
(§2) The data for each PD marker in serum (total and ionized calcium, phosphorus, PTH(1-84), 1,25-dihydroxyvitamin D, P1NP, and CTX) and in urine (calcium, phosphorus, c-AMP, and creatinine) following SEQ ID NO.: 2 and placebo doses were listed for each subject and summarized by SEQ ID NO.: 2 dose using descriptive statistics (mean, SD, CV %, SEM, N, min, max, and median).

[4] = test system: serum PD markers (total and ionized calcium, phosphorus, PTH(1-84), 1,25-dihydroxyvitamin D, P1NP, CTX); assay type: in vivo, human
From the text: Predose Days: Days −30 and −2
PTH(1-84) and 1,25-dihydroxyvitamin D (vitamin D):
Procollagen Type 1 N-Propeptide (P1NP) and C-Telopeptide
Predose (Day −2), Days 3, 8, and 14.
as §2

[5] = human, in vivo
Procedure: (§3) A randomized, double-blind, placebo-controlled, multiple-dose design study of Glu^22,25, Leu^23,28,31, Aib^29, Lys^263]hPTHrP(1-34)NH2 (SEQ ID NO.: 2) was conducted at 2 sites. A total of 39 eligible subjects were sequentially enrolled into 1 of 4 study groups consisting of 10 subjects each, with the exception of Group 2, which had 9 subjects. Within each study group, 8 subjects were randomly assigned to receive SEQ ID NO.: 2 and 2 subjects were randomly assigned to receive placebo (In Group 2 only, 1 subject received placebo). All subjects in the study were judged by the investigator to be healthy, normal volunteers. The test products were Glu^22,25, Leu^23,28,31, Aib^29, Lys^26,30]hPTHrP(1-34)NH2 (SEQ ID NO.: 2) (0.1 mg/vial) and Placebo (0.9% sodium chloride injection, USP). All subjects received a single subcutaneous (SC) dose of Glu^22,25, Leu^23,28,31, Aib^29, Lys^26,30]hPTHrP(1-34)NH2 (SEQ ID NO.: 2) or placebo for 7 days.
(§4) Criteria for Evaluation: Pharmacokinetics: PK sampling for plasma SEQ ID NO.: 2 on Days 1 and 7 was performed at the following time points: Predose (0 hour), 0.25, 0.5, 1, 1.5, 2, 3, 4, 6, 8, 12, and 24 hours postdose. Additionally, predose samples were taken for trough drug analysis on Days 3 to 6. The following PK parameters were computed for Days 1 and 7: AUC(0-t), AUC(0-∞) (Day 1 only), AUC(0-τ), AUCR (Day 1 only), Cmax, Tmax, Tlast, CL/F, Kel, t1/2, and AI (Day 7 only). These parameters were calculated from the overall (24 hours) plasma concentration-versus-time profiles by noncompartmental methods using WinNonlin® Pro Version 5.01 and SAS® Version 8.2. Moreover, the ln-transformed PK parameters Cmax, AUC(0-t), AUC(0-τ), and AUC(0-∞) are presented.
(§5) Plasma concentration and PK parameters for SEQ ID NO.: 2 were listed by subject and summarized by treatment and day using descriptive statistics (mean, standard deviation [SD], coefficient of variation [CV %], standard error of the mean [SEM], sample size [N], minimum [min], maximum [max], and median). Additionally, geometric means and ln-transformed values were provided for Cmax and AUCs. Dose proportionality was evaluated for Days 1 and 7 SEQ ID NO.: 2 data using the following power model: Ln(Y)=β0+β Ln Dose+ε where Y represents the PK parameters AUC(0-28), AUC(0-τ), AUC(0-t), and Cmax. Dose proportionality requires that β=1 for dose-dependent parameters.
(§6) The model was used to calculate the 95% confidence intervals (CI) for the slope of the ln-transformed PK parameters AUCs and Cmax. Dose proportionally was concluded if the 95% CI for the PK parameters included the value of 1.
(§7) For those cases in which dose proportionality could not be concluded within all doses investigated, dose proportionality analysis was performed for the first 3 (by excluding the highest dose) and the last 3 doses (by excluding the lowest dose).

clinical = conditions: human, in vivo; for AUC: AUC0-tau
Procedure: as §3, §4, §5, §6, §7

Oc1ccccc1 [Phenol]
preservative efficacy [1]: maintained
Preservative effectiveness test Results [1]: compliant

OCc1ccccc1 [Benzyl Alcohol]
rate of kill against S Aureus (Staphylococcus aureus): insufficient rate of kill
preservative efficacy [1]: not compliant
Preservative effectiveness test Results [1]: compliant

CC[C@H](C)[C@H](NC(=O)[C@H](CO)NC(=O)[C@H](CCCCN)NC(=O)CNC(=O)[C@H](CCCCN)NC(=O)[C@H](CC(=O)O)NC(=O)[C@H](Cc1cnc[nH]1)NC(=O)[C@H](CC(C)C)NC(=O)[C@H](CC(C)C)NC(=O)[C@H](CCC(N)=O)NC(=O)[C@H](Cc1cnc[nH]1)NC(=O)[C@H](CCC(=O)O)NC(=O)[C@H](CO)NC(=O)[C@@H](NC(=O)[C@H](C)N)C(C)C)C(=O)N[C@@H](CCC(N)=O)C(=O)N[C@@H](CC(=O)O)C(=O)N[C@@H](CC(C)C)C(=O)N[C@@H](CCCNC(=N)N)C(=O)N[C@@H](CCCNC(=N)N)C(=O)N[C@@H](CCCNC(=N)N)C(=O)N[C@@H](CCC(=O)O)C(=O)N[C@@H](CC(C)C)C(=O)N[C@@H](CC(C)C)C(=O)N[C@@H](CCC(=O)O)C(=O)N[C@@H](CCCCN)C(=O)N[C@@H](CC(C)C)C(=O)N[C@@H](CC(C)C)C(=O)NC(C)(C)C(=O)N[C@@H](CCCCN)C(=O)N[C@@H](CC(C)C)C(=O)N[C@@H](Cc1cnc[nH]1)C(=O)N[C@H](C(=O)N[C@@H](C)C(N)=O)[C@@H](C)O [SEQ ID NO.: 2, [Glu^22,25, Leu^23,28,31, Aib^29, Lys^26,30]hPTHrP(1-34)NH2]
solution stability, influence of the preservative [2]: not significantly influenced by the preservative selected
mean urinary excretion rates of calcium ([3]; Day 1): approximately at predose levels
Mean urinary excretion rates of c-AMP ([3]; Days 1 and 7): increased
Mean urinary excretion rates of creatinine ([3]; Days 1 and 7): fluctuated around the predose levels
Mean urinary excretion rates of phosphorus ([3]; Days 1 and 7): fluctuated around the predose levels
P1NP concentrations in serum, maximum increase above baseline ([4]; 80 μg dose, Days 3, 8, and 14): up to 18±12 ng/mL
1,25-dihydroxyvitamin D concentrations in serum ([4]; 40 and 80 μg doses, after 2 hours postdose on Day 1 and most of the time on Day 7): steadily rose above the predose levels
serum phosphorus concentrations versus placebo ([4]; Days 1 and 7): below the placebo concentration levels
Serum PTH (1-84) concentrations ([4]; Days 1 and 7, during most of the sampling times): remained below the predose levels and placebo dose
Total calcium concentrations in serum versus reference range ([4]; human, in vivo): remained within the reference range
Apparent clearance ([5]; 80 ug): 82.74 to 103.9 L/h
Dose proportionality Slope, AUC (0-inf) ([5]; 80 ug): 0.9957
Dose proportionality Slope, AUC (0-t) ([5]; 80 ug): 0.9071
Dose proportionality Slope, AUC (0-tau) ([5]; 80 ug): 1.141
increases in PK parameters Cmax, AUC(0-f), AUC(0-τ), AUC(0-∞) with dose ([5]; 80 ug): dose-proportional
AUC0-t ([5]; sc, 5 ug): 0.080704 ± 0.030441 ng·h/mL
AUCR ([5]; sc, 5 ug): 0.521 ± 0.111
CL/F ([5]; sc, 5 ug): 28.56 L/h
Cmax ([5]; sc, 5 ug): 0.0408 ± 0.00763 ng/mL
Tmax ([5]; sc, 5 ug): 1.05 (0.514, 1.53) hr
ln (AUC0-inf) ([5]; sc, 5 ug): 5.200 ± 0.3016
ln (AUC0-tau) ([5]; sc, 5 ug): 5.198 ± 0.3007
AUC0-t ([5]; sc, 20 ug): 0.17158 ± 0.082031 ng·h/mL
AUC0-tau ([5]; sc, 20 ug): 0.2282 ± 0.095154 ng·h/mL
AUCR ([5]; sc, 20 ug): 0.828 ± 0.0449
CL/F ([5]; sc, 20 ug): 103.9 ± 53.01 L/h
Cmax ([5]; sc, 20 ug): 0.109 ± 0.0192 ng/mL
Tmax ([5]; sc, 20 ug): 0.512 (0.250, 3.05) hr
ln (AUC0-inf) ([5]; sc, 20 ug): 5.456 ± 0.4957
t1/2 ([5]; sc, 20 ug): 1.05 ± 0.244 h
AUC0-t ([5]; sc, 40 ug): 0.40798 ± 0.2197 ng·h/mL
AUC0-tau ([5]; sc, 40 ug): 0.48188 ± 0.22619 ng·h/mL
AUCR ([5]; sc, 40 ug): 0.838 ± 0.0703
CL/F ([5]; sc, 40 ug): 102.0 ± 53.34 L/h
Cmax ([5]; sc, 40 ug): 0.207 ± 0.0777 ng/mL
Tmax ([5]; sc, 40 ug): 0.492 (0.349, 1.00) hr
ln (AUC0-inf) ([5]; sc, 40 ug): 6.280 ± 0.5203
t1/2 ([5]; sc, 40 ug): 1.43 ± 0.397 h
AUC0-t ([5]; sc, 80 ug): 1.003 ± 0.38345 ng·h/mL
AUC0-tau ([5]; sc, 80 ug): 1.0803 ± 0.40857 ng·h/mL
AUCR ([5]; sc, 80 ug): 0.892 ± 0.0369
CL/F ([5]; sc, 80 ug): 82.74 ± 26.95 L/h
Cmax ([5]; sc, 80 ug): 0.436 ± 0.0688 ng/mL
Tmax ([5]; sc, 80 ug): 0.507 (0.500, 1.00) hr
ln (AUC0-inf) ([5]; sc, 80 ug): 6.855 ± 0.5063
t1/2 ([5]; sc, 80 ug): 1.69 ± 0.425 h
half-life (clinical; mean t1/2): 1.05 to 2.59 h
AUC(0-inf) (clinical; sc, 5 ug): 0.187 ± 0.0545 ng·h/mL
AUC0-t (clinical; sc, 5 ug): 0.0784 ± 0.0455 ng·h/mL
AUC (clinical; sc, 5 ug): 0.187 ± 0.0544 ng·h/mL
CL/F (clinical; sc, 5 ug): 476 mL/min
Cmax (clinical; sc, 5 ug): 0.0431 ± 0.0107 ng/mL
Tmax (clinical; sc, 5 ug): 0.566 h
half-life (clinical; sc, 5 ug, t1/2): 2.59 ± 0.69 h
AUC(0-inf) (clinical; sc, 20 ug): 0.257 ± 0.119 ng·h/mL
AUC0-t (clinical; sc, 20 ug): 0.161 ± 0.111 ng·h/mL
AUC (clinical; sc, 20 ug): 0.257 ± 0.119 ng·h/mL
CL/F (clinical; sc, 20 ug): 1570 mL/min
Cmax (clinical; sc, 20 ug): 0.115 ± 0.0539 ng/mL
Tmax (clinical; sc, 20 ug): 0.296 h
half-life (clinical; sc, 20 ug, t1/2): 1.05 ± 0.314 h
AUC(0-inf) (clinical; sc, 40 ug): 0.593 ± 0.281 ng·h/mL
AUC0-t (clinical; sc, 40 ug): 0.42 ± 0.275 ng·h/mL
AUC (clinical; sc, 40 ug): 0.593 ± 0.281 ng·h/mL
CL/F (clinical; sc, 40 ug): 1400 mL/min
Cmax (clinical; sc, 40 ug): 0.223 ± 0.099 ng/mL
Tmax (clinical; sc, 40 ug): 0.494 h
half-life (clinical; sc, 40 ug, t1/2): 1.65 ± 0.254 h
AUC(0-inf) (clinical; sc, 80 ug): 1.06 ± 0.514 ng·h/mL
AUC0-t (clinical; sc, 80 ug): 0.95 ± 0.494 ng·h/mL
AUC (clinical; sc, 80 ug): 1.05 ± 0.511 ng·h/mL
CL/F (clinical; sc, 80 ug): 1580 mL/min
Cmax (clinical; sc, 80 ug): 0.31 ± 0.0543 ng/mL
Tmax (clinical; sc, 80 ug): 0.752 h
half-life (clinical; sc, 80 ug, t1/2): 2.3 ± 0.715 h

— patent USRE49444E1, “Method of treating osteoporosis comprising administration of PTHrP analog” (priority 2006, dated 2023)
